Six compounds from patent US5288851A, “Renin inhibitors, processes for preparing them, methods for using them, and compositions containing them” (Warner-Lambert Company, priority 1992, dated 1994) can be followed below.

The test has as its target T1, renin (Homo sapiens, UniProt P00797).
T1 sequence (P00797 67-406): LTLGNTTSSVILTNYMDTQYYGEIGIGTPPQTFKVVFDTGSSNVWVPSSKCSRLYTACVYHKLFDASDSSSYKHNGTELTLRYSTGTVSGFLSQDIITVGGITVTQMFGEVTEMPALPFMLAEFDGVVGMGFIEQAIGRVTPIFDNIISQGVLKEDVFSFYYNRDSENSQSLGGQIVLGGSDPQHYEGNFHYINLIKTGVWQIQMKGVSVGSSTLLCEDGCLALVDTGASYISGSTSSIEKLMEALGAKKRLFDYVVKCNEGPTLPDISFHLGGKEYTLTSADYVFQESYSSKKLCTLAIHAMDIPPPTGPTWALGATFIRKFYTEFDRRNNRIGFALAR
Description: in vitro renin inhibitory activity, radioimmunoassay for angiotensin I. The format is biochemical. To be noted: renin incubated two hours at 37° with substrate angiotensinogen; angiotensin I by radioimmunoassay; molar concentration causing 50% inhibition. As for the experimental part:
The effectiveness of the aforementioned compounds is determined by a test for in vitro renin inhibitory activity. This activity is determined by a standard radioimmunoassay for angiotensin I. In this assay the enzyme, renin, incubated for two hours at 37° in the presence of a substrate, angiotensinogen, generates the product, angiotensin I. Test compounds are added to the incubation mixture. Relative activity is reported as the IC50, which is the molar concentration of test compound causing a 50% inhibition of the renin activity.

What is called IC50 is the midpoint of a concentration-inhibition curve.

In turn, “Me2 NSO2 --PHE--PGY--STA--NHCH2 CH(CH3)CH2 CH3 [Me2 NSO2 PHEPGYSTANHCH2 CH(CH3)CH2 CH3]” had a half-inhibitory concentration (IC50) of 34 nM.
As for `CCC(C)CNC(=O)CC(O)C(CC(C)C)NC(=O)C(Cc1cnc[nH]1)NC(=O)C(Cc1ccccc1)NS(=O)(=O)N(C)C` (stereo not drawn) [Me2 NSO2 PHEHISSTANHCH2 CH(CH3)CH2 CH3, Me2 NSO2 --PHE--HIS--STA--NHCH2 CH(CH3)CH2 CH3], the IC50 was 41 nM.
For `CCC(C)CNC(=O)CC(O)C(CC(C)C)NC(=O)C(Cc1cnc[nH]1)NC(=O)C(Cc1ccc(OC)cc1)NS(=O)(=O)N(C)C` (stereo not drawn) [Me2 NSO2 TYR(OMe)HISSTANHCH2 CH(CH3)CH2 CH3], the concentration for half-maximal inhibition (IC50) is around 3000 nM.
The result for MeNSO2 PHEALGCYSTANHCH2 CH(CH3)CH2 CH3 reads 1.5 nM; that for `C=CC[C@H](NC(=O)[C@H](Cc1ccccc1)NS(=O)(=O)N(C)C)C(=O)N[C@@H](CC(C)C)[C@@H](O)CC(=O)NCC(C)CC` (stereo partly drawn) [MeNSO2 PHEALGSTANHCH2 CH(CH3)CH2 CH3, Me2 NSO2 --PHE--ALG--STA--NHCH2 CH(CH3)CH2 CH3], 7 nM.
Regarding MeNSO2 PHEPGYCYSTANHCH2 CH(CH3)CH2 CH3, the 50% inhibitory concentration (IC50) came out at 1.1 nM.
